# From ChEMBL document CHEMBL1697781, “Assessment of the health effects of chemicals in humans: II. Construction of an adverse effects database for QSAR modeling” (Curr Drug Discov Technol, 2004)
# Key:
# Conditions in all cases: human; call rule not given here
# Hepatotoxicity [1] = assay: FDA HLAED, alkaline phosphatase increase
# Hepatotoxicity [2] = assay: FDA HLAED, gamma-glutamyl transferase (GGT) increase
# Hepatotoxicity [3] = assay: FDA HLAED, liver enzyme composite activity
# Hepatotoxicity [4] = assay: FDA HLAED, lactate dehydrogenase (LDH) increase
# Hepatotoxicity [5] = assay: FDA HLAED, serum glutamic pyruvic transaminase (SGPT) increase
# Hepatotoxicity [6] = assay: FDA HLAED, serum glutamic oxaloacetic transaminase (SGOT) increase
# For GGT Increase - Index Value in this document: reference of the scale not given here.
# For LDH Increase - Index Value in this document: reference of the scale not given here.
Structure (SMILES),Alkaline Phosphatase Increase - Activity Score (Hepatotoxicity [1]),Alkaline Phosphatase Increase - Index Value (Hepatotoxicity [1]),Alkaline Phosphatase Increase - Number of Reports (Hepatotoxicity [1]),GGT Increase - Activity Score (Hepatotoxicity [2]),GGT Increase - Index Value (Hepatotoxicity [2]),GGT Increase - Number of Reports (Hepatotoxicity [2]),Composite Activity - Active (Hepatotoxicity [3]),Composite Activity - Marginal (Hepatotoxicity [3]),Composite Activity - Score (Hepatotoxicity [3]),LDH Increase - Activity Score (Hepatotoxicity [4]),LDH Increase - Index Value (Hepatotoxicity [4]),LDH Increase - Number of Reports (Hepatotoxicity [4]),SGPT Increase - Activity Score (Hepatotoxicity [5]),SGPT Increase - Index Value (Hepatotoxicity [5]),SGPT Increase - Number of Reports (Hepatotoxicity [5]),SGOT Increase - Activity Score (Hepatotoxicity [6]),SGOT Increase - Index Value (Hepatotoxicity [6]),SGOT Increase - Number of Reports (Hepatotoxicity [6])
N=C(N)c1ccc(OCCCCCOc2ccc(C(=N)N)cc2)cc1 [PENTAMIDINE],Inactive,11.5,< 4,Inactive,0,< 4,0,0,Inactive,Inactive,5.7,< 4,Inactive,5.7,< 4,Inactive,5.7,< 4
OC[C@H]1O[C@@H](n2cnc3c2NC=NC[C@H]3O)C[C@@H]1O [PENTOSTATIN],Inactive,0,< 4,Inactive,0,< 4,0,0,Inactive,Inactive,0,< 4,Inactive,0,< 4,Inactive,0,< 4
CC(=O)CCCCn1c(=O)c2c(ncn2C)n(C)c1=O [PENTOXIFYLLINE],Inactive,1,>= 4,Inactive,0,< 4,0,0,Inactive,Inactive,0.6,>= 4,Inactive,0.3,< 4,Inactive,0.9,>= 4
CCCN1C[C@H](CSC)C[C@@H]2c3cccc4[nH]cc(c34)C[C@H]21 [PERGOLIDE],Inactive,1.3,< 4,Inactive,0,< 4,0,0,Inactive,Inactive,0,< 4,Inactive,3.9,< 4,Inactive,3.9,< 4
CC1(C)C(C=C(Cl)Cl)C1C(=O)OCc1cccc(Oc2ccccc2)c1 (stereo unspecified) [PERMETHRIN],Inactive,0,< 4,Inactive,0,< 4,0,0,Inactive,Inactive,0,< 4,Inactive,0,< 4,Inactive,0,< 4
CC[C@@H]1C(=O)OC[C@@H]1Cc1cncn1C [PILOCARPINE],Inactive,0,< 4,Inactive,0,< 4,0,0,Inactive,Inactive,0,< 4,Inactive,4.6,< 4,Inactive,4.6,< 4
O=c1[nH]c2ccccc2n1C1CCN(CCCC(c2ccc(F)cc2)c2ccc(F)cc2)CC1 [PIMOZIDE],Inactive,17.6,< 4,Inactive,17.6,< 4,0,0,Inactive,Inactive,0,< 4,Inactive,17.6,< 4,Inactive,0,< 4
CC(C)NCC(O)COc1cccc2[nH]ccc12 (stereo unspecified) [PINDOLOL],Inactive,1,< 4,Inactive,0,< 4,0,0,Inactive,Inactive,0.7,< 4,Inactive,2.6,>= 4,Inactive,2.6,>= 4
CC(=O)O[C@H]1C[C@@H]2CC[C@@H]3[C@H](CC[C@@]4(C)[C@H]3C[C@H](N3CC[N+](C)(C)CC3)[C@@H]4OC(C)=O)[C@@]2(C)C[C@@H]1N1CC[N+](C)(C)CC1.[Br-].[Br-] [PIPECURONIUM BROMIDE],Inactive,0,< 4,Inactive,0,< 4,0,0,Inactive,Inactive,0,< 4,Inactive,0,< 4,Inactive,0,< 4
CCN1CCN(C(=O)N[C@@H](C(=O)N[C@@H]2C(=O)N3[C@@H]2SC(C)(C)[C@@H]3C(=O)O)c2ccccc2)C(=O)C1=O [PIPERACILLIN],Inactive,0.3,< 4,Inactive,0,< 4,0,0,Inactive,Inactive,0,< 4,Inactive,0,< 4,Inactive,0.3,< 4
CC(C)(C)NCC(O)c1ccc(O)c(CO)n1 (stereo unspecified) [PIRBUTEROL],Inactive,0,< 4,Inactive,0,< 4,0,0,Inactive,Inactive,0,< 4,Inactive,0,< 4,Inactive,0.3,< 4
CN1C(C(=O)Nc2ccccn2)=C(O)c2ccccc2S1(=O)=O [PIROXICAM],Inactive,2.6,>= 4,Inactive,0,< 4,0,0,Inactive,Inactive,0.5,< 4,Inactive,0.9,>= 4,Inactive,1.7,>= 4
